Where two headings read alike, the source gives them in different places. Residues, ends and D or L forms follow the SMILES beside them. *: point of attachment. Cbz = O=C(OCc1ccccc1)*
Columns and labels:
VSV-SARS-CoV-2 [1] = assay: organism not typed; assay type: cell-based
VSV [2] = assay: microbe, parasite or virus in culture; assay type: cell-based
VSV [3] = details: ref [12]; cited from earlier work
MA104 cells = details: treated 25 h, WST-8
VSV-SARS-CoV-2 [4] = assay type: cell-based; details: MA104, MOI of 3, 24 hpi
SARS-CoV = details: ref [6]; cited from earlier work
SARS-CoV-2-mNeonGreen = SARS-CoV-2-mNeonGreen infection of Vero E6 cells; assay type: cell-based
VSV-SARS-CoV-2 [5] = assay: organism not typed; assay type: cell-based; remark: listed apart in the source
SARS-CoV-2 = details: ref [4], [7]; cited from earlier work
in vitro = details: African green monkey
[6] = MA104, read-out: EC50 against VSV-SARS-CoV-2, MA104 cells, pre-treated 1 h, 24 h infection, MOI = 1, GFP signal
[7] = Vesicular stomatitis virus, MA104, read-out: EC50 against VSV
[8] = MA104, read-out: EC50 against VSV-SARS-CoV-2 (Fig. S1), MA104 cells, treated 1 h prior, MOI of 0.5, 24 hpi

**Q.** With `C[C@H]1CCC/C=C/[C@@H]2C[C@H](O)C[C@H]2[C@H](O)/C=C/C(=O)O1` [Brefeldin A, brefeldin A] as the compound, how does the EC50 (VSV-SARS-CoV-2 [1]; read-out: EC50 against VSV-SARS-CoV-2, MA104 cells, pre-treated 1 h, 24 h infection, MOI = 1, GFP signal) read?
**A.** < 2 µM

**Q.** Which EC50 (VSV-SARS-CoV-2 [1]; [6]) does the source give for `O=C(O)/C=C/c1ccc(O)c(O)c1` [Caffeic Acid, caffeic acid] here?
**A.** 4.66 µM

**Q.** What about the EC50 (VSV [2]; [7]) of the same compound?
**A.** 6.7 µM

**Q.** What does the source list for `C/C=C/[C@H]1O[C@@](O)([C@@H](C)[C@H](O)[C@H](C)[C@H]2OC(=O)/C(OC)=C/C(C)=C/[C@@H](C)[C@@H](O)[C@@H](CC)[C@@H](O)[C@H](C)C/C(C)=C/C=C/[C@@H]2OC)C[C@@H](O[C@H]2C[C@@H](O)[C@H](OC(N)=O)[C@@H](C)O2)[C@@H]1C` [Concanamycin A, concanamycin A]?
**A.** EC50 (VSV-SARS-CoV-2 [1]; [6]): < 0.01 µM; EC50 (VSV [2]; [7]): 5.55 µM

**Q.** For `CCOC(=O)[C@H]1O[C@@H]1C(=O)N[C@@H](CC(C)C)C(=O)NCCC(C)C` [E-64d], which “sensitivity of VSV to treatment (in words)” value (VSV [3]) is on record?
**A.** not be sensitive to E-64d treatment

**Q.** And the CC50 (MA104 cells)?
**A.** > 300 µM

**Q.** What does the source list for `CCCCCCCCc1ccc(CCC(N)(CO)CO)cc1` [FTY720]?
**A.** EC50 (VSV-SARS-CoV-2 [1]; [6]): 5.17 µM; EC50 (VSV [2]; [7]): 16.5 µM

**Q.** With `CC(C)Cn1c(=O)n(C)c(=O)c2[nH]cnc21` [IBMX, 3-isobutyl-1-methylxanthine] as the compound, how does the EC50 (VSV-SARS-CoV-2 [1]; [6]) read?
**A.** < 2 µM

**Q.** What about the EC50 (VSV [2]; [7]) of the same compound?
**A.** < 2 µM

**Q.** With `Clc1ccc(N/N=C(\c2ccccc2)c2ccccn2)nc1` [JIB-04] as the compound, how does the percentage of inhibition (VSV-SARS-CoV-2 [4]; JIB-04 0.3 µM, NTZ 0 µM) read?
**A.** 21%

**Q.** And the percentage of inhibition (VSV-SARS-CoV-2 [4]; JIB-04 1 µM, NTZ 0 µM)?
**A.** 50%

**Q.** And the percentage of inhibition (VSV-SARS-CoV-2 [4]; JIB-04 3 µM, NTZ 0 µM)?
**A.** 73%

**Q.** What about the percentage of inhibition (VSV-SARS-CoV-2 [4]; JIB-04 10 µM, NTZ 0 µM) of the same compound?
**A.** 90%

**Q.** With `CC(=O)N1CCN(c2ccc(OCC3COC(Cn4ccnc4)(c4ccc(Cl)cc4Cl)O3)cc2)CC1` (stereo not shown) [Ketoconazole, ketoconazole] as the compound, how does the EC50 (VSV-SARS-CoV-2 [1]; [6]) read?
**A.** 30.1 µM

**Q.** And the EC50 (VSV [2]; [7])?
**A.** > 100 µM

**Q.** What does the source list for `CC(C)C[C@@H](C=O)NC(=O)[C@H](CC(C)C)NC(=O)[C@H](CC(C)C)NC(=O)OCc1ccccc1` [MG132] (Cbz-Leu-Leu-Leu-aldehyde)?
**A.** SARS-CoV replication (in words) (SARS-CoV): impair SARS-CoV replication; EC50 (VSV-SARS-CoV-2 [1]; [6]): 0.64 µM; selectivity in antiviral activities, VSV EC50 compared to VSV-SARS-CoV-2 EC50 (VSV-SARS-CoV-2 [1]; MA104 cells): 100 fold

**Q.** For `CC(=O)Oc1ccccc1C(=O)Nc1ncc([N+](=O)[O-])s1` [Nitazoxanide, nitazoxanide], which percentage of inhibition (VSV-SARS-CoV-2 [4]; JIB-04 0 µM, NTZ 1 µM) is on record?
**A.** 16%

**Q.** What about the percentage of inhibition (VSV-SARS-CoV-2 [4]; JIB-04 0 µM, NTZ 3 µM) of the same compound?
**A.** 24%

**Q.** And the percentage of inhibition (VSV-SARS-CoV-2 [4]; JIB-04 0 µM, NTZ 10 µM)?
**A.** 42%

**Q.** What about the percentage of inhibition (VSV-SARS-CoV-2 [4]; JIB-04 0 µM, NTZ 30 µM) of the same compound?
**A.** 92%

**Q.** And the EC50 (VSV-SARS-CoV-2 [1]; [8])?
**A.** 5.82 µM

**Q.** What about the EC50 (VSV-SARS-CoV-2 [1]; [6]) of the same compound?
**A.** 10.5 µM

**Q.** And the “SI (selectivity index)” value (VSV-SARS-CoV-2 [1]; VSV-SARS-CoV-2, MA104 cells)?
**A.** 237

**Q.** And the “SI (selectivity index)” value (SARS-CoV-2-mNeonGreen; SARS-CoV-2-mNeonGreen, Vero E6 cells)?
**A.** 167

**Q.** And the EC50 (SARS-CoV-2-mNeonGreen; Severe acute respiratory syndrome coronavirus 2, Vero C1008, read-out: EC50 against SARS-CoV-2-mNeonGreen)?
**A.** 4.9 µM

**Q.** What about the EC50 (VSV [2]; [7]) of the same compound?
**A.** 16.3 µM

**Q.** What does the source list for `COc1ccc2cc1Oc1ccc(cc1)C[C@H]1c3cc(c(OC)cc3CCN1C)Oc1c(OC)c(OC)cc3c1[C@H](C2)N(C)CC3` [Tetrandrine, tetrandrine]?
**A.** EC50 (VSV-SARS-CoV-2 [1]; [6]): 1.23 µM; EC50 (VSV [2]; [7]): 23.2 µM

**Q.** Which results are given for `C/C=C(/C)C(=O)O[C@H]1C(C)=C2[C@H]([C@@H]1OC(=O)CCCCCCC)[C@@](C)(OC(C)=O)C[C@H](OC(=O)CCC)[C@@]1(O)[C@H]2OC(=O)[C@@]1(C)O` [Thapsigargin, thapsigargin]?
**A.** EC50 (VSV-SARS-CoV-2 [1]; [6]): 0.22 µM; EC50 (VSV [2]; [7]): 4.08 µM

**Q.** With `CC(C)[C@H](NC(=O)OCc1ccccc1)C(=O)N[C@H](C=O)Cc1ccccc1` [calpain inhibitor III] (Cbz-Val-Phe-aldehyde) as the compound, how does the “selectivity in antiviral activities, VSV EC50 compared to VSV-SARS-CoV-2 EC50” value (VSV-SARS-CoV-2 [1]; MA104 cells) read?
**A.** more than 30 fold

**Q.** And the EC50 (VSV-SARS-CoV-2 [1]; MA104 cells, pre-treated 1 h, 24 h infection, MOI = 1, GFP signal, read-out: EC50 against VSV-SARS-CoV-2)?
**A.** 0.231 µM

**Q.** And the EC50 (VSV-SARS-CoV-2 [5]; Vero E6 cells, pre-treated 1 h, 24 h infection, read-out: EC50 against VSV-SARS-CoV-2 in Vero E6 cells)?
**A.** < 0.5 µM

**Q.** What about the EC50 (VSV [2]; read-out: EC50 against VSV) of the same compound?
**A.** 10.7 µM

**Q.** What about the CC50 (MA104 cells) of the same compound?
**A.** > 300 µM

**Q.** Which “suppression of SARS-CoV-2 replication (in words)” value (SARS-CoV-2) does the source give for `CSCC[C@@H](C=O)NC(=O)[C@H](CC(C)C)NC(=O)[C@H](CC(C)C)NC(C)=O` [calpain inhibitor II] (Ac-Leu-Leu-Met-aldehyde) here?
**A.** suppressed SARS-CoV-2 replication

**Q.** With `CCCC[C@@H](C=O)NC(=O)[C@H](CC(C)C)NC(=O)OCc1ccccc1` [calpeptin] as the compound, how does the EC50 (VSV-SARS-CoV-2 [1]; [6]) read?
**A.** 0.208 µM

**Q.** And the “selectivity in antiviral activities, VSV EC50 compared to VSV-SARS-CoV-2 EC50” value (VSV-SARS-CoV-2 [1]; MA104 cells)?
**A.** more than 30 fold

**Q.** What about the “suppression of SARS-CoV-2 replication (in words)” value (SARS-CoV-2) of the same compound?
**A.** suppressed SARS-CoV-2 replication

**Q.** And the CC50 (in vitro)?
**A.** 300 µM

**Q.** What about the EC50 (VSV-SARS-CoV-2 [5]; Vero C1008, read-out: EC50 against VSV-SARS-CoV-2 in Vero E6 cells, Vero E6 cells, pre-treated 1 h, 24 h infection) of the same compound?
**A.** < 0.5 µM

**Q.** And the EC50 (VSV [2]; [7])?
**A.** 7.43 µM

**Q.** Which EC50 (VSV-SARS-CoV-2 [1]; [8]) does the source give for `O=C(/C=C/c1ccc(O)c(O)c1)O[C@H](Cc1ccc(O)c(O)c1)C(=O)O` [rosmarinic acid] here?
**A.** > 100 µM

**Q.** What about the “inhibition of VSV-SARS-CoV-2 infection (in words)” value (VSV-SARS-CoV-2 [1]; MA104 cells) of the same compound?
**A.** did not inhibit VSV-SARS-CoV-2 infection

**Q.** What about the CC50 (in vitro) of the same compound?
**A.** > 300 µM

From PMC10936414 (mBio, 2024)
